Format in all cases: cell-based
One test relates to Salmonella culture (M61). The test is described as follows: Log kill of Salmonella M61 in suspension, acid treatment, quench and plating on Salmonella Shigella agar. As to the method: In each instance a target sample was employed using approximately 50 micro liters of a Salmonella culture (given the name “M61”) derived from a sample of chicken meal contaminated with chicken feces and approximately 1.5×10^7 cells per ml. […] The results obtained were consistent with the genus Salmonella.
(§1) The tests were performed at room temperature, e.g., 71 deg. […] The reaction was permitted to proceed for the time indicated for each test in Table 1, and was terminated by the introduction of a quench buffer comprising 4.2 M potassium phosphate buffer, pH 7.2. […] The plating medium was Salmonella Shigella agar, […]. The reduction in the bacteria count is expressed as the “log kill.” “Log kill” is generally defined as log10[initial cfu/ml]−log10[remaining cfu/ml].
An experiment was performed using the same protocol as in Example 1, except that the duration of treatment with the antimicrobial agent was maintained constant at 20 seconds. […] All tests were conducted at an ambient temperature of approximately 71 deg. F.
An experiment was performed using the same protocol as in Example 3. In this case, the target organism was a sample of “M61” Salmonella.

Test [1] concerns Salmonella enterica ATCC 14028. The test is described as follows: Log kill of Salmonella enterica ATCC 14028 in suspension, plating on tryptic soy agar. The following applies: for Log Kill Salmonella (ATCC 14028) / Relative Kill Salmonella (ATCC 14028): 15 seconds. As to the method: as §1
Similar tests were performed using Salmonella enterica ATCC 14028 instead of the M61 Salmonella, and tryptic soy agar was employed instead of Salmonella Shigella agar.
The same tests were repeated using Salmonella enterica ATCC 14028 instead of the M61 Salmonella, and tryptic soy agar was employed instead of Salmonella Shigella agar.
The same tests were repeated using Salmonella enterica ATCC 14028 instead of Salmonella M61, and tryptic soy agar was employed instead of Salmonella shigella.
Another series of tests were performed as those resulting in Table VB, except that the acids were present in a total amount of 2%.

The subject of another test is Escherichia coli (SAC-2). The test is described as follows: Log kill of E. coli SAC-2 by lactic/citric acid mixtures. The note with it: 2.5% acid, total; 15 seconds, 76 deg F. As for the experimental part:
(§2) The tests were performed at room temperature, e.g., 71 deg. F. A reaction mixture was prepared including the Salmonella, water and the aqueous solution of lactic acid. The reaction was permitted to proceed for the time indicated for each test in Table 1, and was terminated by the introduction of a quench buffer comprising 4.2 M potassium phosphate buffer, pH 7.2. The results of the test were evaluated using a series of 10-fold dilutions as needed to determine, on a standard plating agar, the titer of bacteria that survived the antimicrobial treatment. The plating medium was Salmonella Shigella agar, a medium that would allow the growth of most bacteria. The reduction in the bacteria count is expressed as the “log kill.” “Log kill” is generally defined as log10[initial cfu/ml]−log10[remaining cfu/ml].
An experiment was performed using the same protocol as in Example 1. In this case, the target bacteria was a sample of E. coli (given the name “SAC-2”) taken from a local sewer facility. The isolate was characterized using standard microbiological methods including selective and indicative culture media and other metabolic tests. The results obtained were consistent with E. coli.
(§3) The duration of treatment was 15 seconds at an ambient temperature of 76 deg F.

In test [2] the test system is Escherichia coli (ATCC 12435). Put plainly: Log kill of E. coli ATCC 12435 by lactic/citric acid mixtures. The following applies: 2.5% acid, total; 15 seconds, 76 deg F. As for the experimental part:
as §2, §3
The same tests were repeated using E. coli ATCC 12435 instead of the SAC-2 E. coli, and tryptic soy agar was employed instead of Salmonella Shigella agar.

The structures appear in SMILES notation.

Regarding `O=C(O)CC(O)(CC(=O)O)C(=O)O` [citric acid], the “Salmonella (M61) Log Kill” value in the test on Salmonella culture (M61) (2.5 wt % aqueous solution, 80 sec., room temperature 71 deg. F) is 0.29 log kill. Besides, the “performance compared to that of lactic acid, Salmonella M61 log kill” value in the test on Salmonella culture (M61) (2.5 wt. % solution, 80 seconds) was “poor”. For the same compound, the “Log Kill Salmonella (ATCC 14028)” value in test [1] (2.0% total acid) amounted to 0.444; in test [1] ([…] total acid), 0.322. For the same compound, the “Relative Kill Salmonella (ATCC 14028)” value in test [1] (2.0% total acid, 40/40 = 1) was 0.663; in test [1] ([…] total acid, 80/0 = 1) it was 0.422. In addition, the “Citric Acid Efficacy Log kill (75 F., 20 sec)” value in test [1] (2.5 % citric acid, Salmonella ATCC 14028, 75 F., 20 sec) was 0.555. Also, the “Salmonella (ATCC 14028) Log Kill” value in test [1] (2.5 wt % aqueous solution, 15 sec.) was found to be 0.56 log kill.

In the case of `CC(O)C(=O)O` (stereo not shown) [lactic acid], the “Log Kill Escherichia coli (SAC-2)” value in the test with Escherichia coli (SAC-2) is recorded as 0.953. Further, in test [2], the “Log Kill Escherichia coli (ATCC 12435)” value was 1.93.

For the origin of these results see US20110038997A1, “Method of processing poultry and other meat to reduce or eliminate Salmonella” (Birko Corporation, priority 2007, published 2011).
